Values joined by “and” are separate entries in the source; they are usually repeats but may differ in a detail not shown here. Equal entries are not always repeated. Where two headings read alike, the source gives them in different places.
Assays:
MDR1 = test: MDCKII-MDR1 permeability assay; conditions: dog, MDCKII-MDR1, assay conc. 10
[1] = MDCKII-MDR1 permeability assay; conditions: dog, MDCK-MDR1, Papp A->B, MDCKII-MDR1; assay conc. 10; apical to basolateral
T1-a-5258 = test: CellTiter-Glo (CTG) GR50, T1-a-5258; conditions: Homo sapiens
T1-V654A = test: CellTiter-Glo (CTG) GR50, T1-V654A; conditions: Homo sapiens
PDGFRA-D842V = target: T1, PDGFRA-D842V (Homo sapiens, UniProt P16234, D842V); test: Activity-based HTRF KinEASE assay, PDGFRA-D842V; assay type: biochemical
T1 construct: purchased Invitrogen PV4203 (lot #2343231B)
T1 sequence (P16234 24-1089 D842V): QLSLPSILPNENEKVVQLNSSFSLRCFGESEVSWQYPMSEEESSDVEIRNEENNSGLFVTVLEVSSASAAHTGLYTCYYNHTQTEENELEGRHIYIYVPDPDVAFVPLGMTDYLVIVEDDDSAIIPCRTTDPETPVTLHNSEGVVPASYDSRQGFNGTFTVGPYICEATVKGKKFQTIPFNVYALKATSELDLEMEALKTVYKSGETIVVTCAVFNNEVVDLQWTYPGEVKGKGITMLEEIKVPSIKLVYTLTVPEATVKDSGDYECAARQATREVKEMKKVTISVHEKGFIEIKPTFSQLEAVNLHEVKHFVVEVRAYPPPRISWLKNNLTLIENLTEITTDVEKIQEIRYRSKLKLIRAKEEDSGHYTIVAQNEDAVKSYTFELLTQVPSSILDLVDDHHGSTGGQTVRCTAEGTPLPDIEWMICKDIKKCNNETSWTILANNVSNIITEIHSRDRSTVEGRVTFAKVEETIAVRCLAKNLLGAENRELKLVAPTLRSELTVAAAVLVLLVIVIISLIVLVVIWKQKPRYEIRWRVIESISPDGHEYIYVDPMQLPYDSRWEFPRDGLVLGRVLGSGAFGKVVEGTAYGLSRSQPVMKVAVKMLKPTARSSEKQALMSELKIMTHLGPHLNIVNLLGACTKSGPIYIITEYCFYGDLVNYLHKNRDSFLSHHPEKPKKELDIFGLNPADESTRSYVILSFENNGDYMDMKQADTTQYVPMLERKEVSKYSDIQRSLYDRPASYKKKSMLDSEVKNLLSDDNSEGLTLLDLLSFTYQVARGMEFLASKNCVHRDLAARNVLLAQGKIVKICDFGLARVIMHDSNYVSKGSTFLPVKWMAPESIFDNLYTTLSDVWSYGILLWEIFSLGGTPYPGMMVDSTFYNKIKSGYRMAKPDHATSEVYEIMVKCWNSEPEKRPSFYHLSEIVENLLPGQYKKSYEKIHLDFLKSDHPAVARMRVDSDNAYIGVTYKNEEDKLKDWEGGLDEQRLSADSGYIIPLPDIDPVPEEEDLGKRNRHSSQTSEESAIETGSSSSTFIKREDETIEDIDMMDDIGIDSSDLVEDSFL

SK-LMS-1 = test: CellTiter-Glo (CTG) GR50, SK-LMS-1 control cell line; conditions: for CTG GR50 SK-LMS-1: mean ± s.d., n = 3, control cell line; for CTG GR50 SK-LMS-1, single determinations: raw data of Supp. Tab. 2, independent experiments, unit from Supp. Tab. 2
T1-T670I = test: CellTiter-Glo (CTG) GR50, T1-T670I; conditions: Homo sapiens
GIST-T1 = test: CellTiter-Glo (CTG) GR50, GIST-T1; conditions: Homo sapiens
MDA-MB-175VII = test: CellTiter-Glo (CTG) EC50, MDA-MB-175VII breast cancer control cell line; assay type: cell-based, human
Description: (§1) Cell line authenticity was confirmed by STR analysis at Eurofins Genomics. All cell lines were tested regularly for mycoplasma contamination using the Mycoplasmacheck Service at Eurofins Genomics. […] Following incubation for 24 h in a humidified atmosphere at 37 °C and 5% CO2, cells were treated with inhibitors in serial dilutions ranging from 30 µM down to 0.1 nM using an Echo650 acoustic liquid handler (Beckman Coulter). Cell viability was analyzed on day 5 using the CellTiter-Glo® assay (Promega) using 500 ms integration time. The obtained data were normalized to the plate positive control (30 µM staurosporine) and negative control (DMSO) and subsequently analyzed and fitted with the Quattro Software Suite (Quattro Research) using a four-parameter logistic model. As quality control, the Z’-factor was calculated from 16 positive and negative control values. Only assay results showing a Z’-factor ≥0.5 were used for further analysis. All experimental points were measured in duplicates for each plate and were independently replicated in at least three plates.

ZR-75-1 = test: CellTiter-Glo (CTG) EC50, ZR-75-1 breast cancer control cell line; assay type: cell-based, human
Description: as §1

GIST-48B = test: CellTiter-Glo (CTG) GR50, GIST-48B control cell line (off-target toxicity); conditions: ratio of GR50 values; for GIST-48B/D842V: source data sheet
KIT-D816H = KIT-D816H (Homo sapiens, UniProt P10721, D816H); test: Activity-based HTRF KinEASE assay, KIT-D816H; assay type: biochemical
KIT-D816H, sequence (P10721 26-976 D816H): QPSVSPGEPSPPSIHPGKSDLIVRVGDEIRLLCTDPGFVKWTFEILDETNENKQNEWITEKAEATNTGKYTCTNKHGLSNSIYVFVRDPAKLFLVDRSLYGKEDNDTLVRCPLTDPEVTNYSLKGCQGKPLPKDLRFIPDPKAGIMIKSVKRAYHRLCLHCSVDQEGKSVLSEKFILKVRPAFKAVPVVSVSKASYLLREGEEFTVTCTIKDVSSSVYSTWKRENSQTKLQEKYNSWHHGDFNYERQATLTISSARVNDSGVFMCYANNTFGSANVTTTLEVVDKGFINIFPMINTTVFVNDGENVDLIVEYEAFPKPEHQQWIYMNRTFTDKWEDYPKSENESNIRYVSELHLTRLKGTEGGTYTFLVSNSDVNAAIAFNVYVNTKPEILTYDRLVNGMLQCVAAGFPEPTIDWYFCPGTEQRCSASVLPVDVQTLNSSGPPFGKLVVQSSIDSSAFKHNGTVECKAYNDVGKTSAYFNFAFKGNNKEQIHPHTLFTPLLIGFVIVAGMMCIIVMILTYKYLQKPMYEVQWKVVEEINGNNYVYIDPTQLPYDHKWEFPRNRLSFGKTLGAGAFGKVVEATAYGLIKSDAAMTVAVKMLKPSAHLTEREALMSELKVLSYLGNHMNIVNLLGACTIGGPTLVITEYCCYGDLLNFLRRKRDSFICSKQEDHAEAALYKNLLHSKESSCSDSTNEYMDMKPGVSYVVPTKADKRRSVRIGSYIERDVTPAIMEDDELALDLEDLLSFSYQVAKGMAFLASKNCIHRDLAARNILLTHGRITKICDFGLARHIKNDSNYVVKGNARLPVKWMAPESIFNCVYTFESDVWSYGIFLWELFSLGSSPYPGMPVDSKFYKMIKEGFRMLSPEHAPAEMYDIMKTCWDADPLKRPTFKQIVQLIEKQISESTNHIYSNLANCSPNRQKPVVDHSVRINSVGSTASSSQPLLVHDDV

[2] = read-out: CTG GR50 T1-a-5258, single determinations, raw data of Supp. Tab. 1, independent experiments, unit from Supp. Tab. 1
[3] = read-out: PDGFRA CTG GR50 T1-a-5258, mean ± s.d., n ≥ 3, triple mutant D842V, G652E, V658A
[4] = read-out: CTG GR50 T1-V654A, single determinations, raw data of Supp. Tab. 1, independent experiments, unit from Supp. Tab. 1
[5] = read-out: KIT CTG GR50 T1-V654A, mean ± s.d., n ≥ 3 (* n = 2 for ava)
[6] = mean ± s.d., n ≥ 3, ATP at KM (14 µM), read-out: HTRF IC50 PDGFRA-D842V
[7] = raw data of Table 1, independent experiments 1-3, unit from Table 1, read-out: HTRF IC50 PDGFRA-D842V, single determinations
[8] = read-out: CTG GR50 T1-T670I, single determinations, raw data of Supp. Tab. 1, independent experiments, unit from Supp. Tab. 1
[9] = read-out: KIT CTG GR50 T1-T670I, mean ± s.d., n ≥ 3
[10] = GISTT1, read-out: KIT CTG GR50 GIST-T1, mean ± s.d., n ≥ 3, GR50 half-maximal growth inhibition rate
[11] = Homo sapiens, MDA-MB-175-VII, read-out: CTG EC50 MDA-MB-175VII, mean ± s.d., n = 3, control cell line
[12] = Homo sapiens, MDA-MB-175-VII, read-out: CTG EC50 MDA-MB-175VII, single determinations, raw data of Supp. Tab. 2, independent experiments, unit from Supp. Tab. 2
[13] = Homo sapiens, ZR-75-1, mean ± s.d., n = 3, control cell line, read-out: CTG EC50 ZR-75-1
[14] = Homo sapiens, ZR-75-1, raw data of Supp. Tab. 2, independent experiments, unit from Supp. Tab. 2, read-out: CTG EC50 ZR-75-1, single determinations
[15] = mean ± s.d., n ≥ 3, ATP at KM (12 µM), read-out: HTRF IC50 KIT-D816H
[16] = raw data of Table 1, independent experiments, unit from Table 1, read-out: HTRF IC50 KIT-D816H, single determinations
[17] = GISTT1, read-out: CTG GR50 GIST-T1, single determinations, raw data of Table 1, independent experiments, unit from Table 1

SMILES	GI50 (T1-a-5258; [2])	GI50 (T1-a-5258; [3])	GI50 (T1-V654A; [4])	GI50 (T1-V654A; [5])	IC50 (PDGFRA-D842V; [6])	IC50 (PDGFRA-D842V; [7])	CTG GR50 SK-LMS-1 (SK-LMS-1)	GI50 (T1-T670I; [8])	GI50 (T1-T670I; [9])	GI50 (GIST-T1; [10])	EC50 (MDA-MB-175VII; [11])	EC50 (MDA-MB-175VII; [12])	EC50 (ZR-75-1; [13])	EC50 (ZR-75-1; [14])	ratio GIST-48B/ T1-a-D842V (GIST-48B)	GIST-48B/D842V (GIST-48B)	IC50 (KIT-D816H; [15])	IC50 (KIT-D816H; [16])	CTG GR50 SK-LMS-1, single determinations (SK-LMS-1)	GI50 (GIST-T1; [17])	further results
Cn1cc(-c2cc3c(N4CCN(c5ncc(C(C)(N)c6ccc(F)cc6)cn5)CC4)ncnn3c2)cn1 (centres unmarked) [1 (avapritinib)]	–	–	–	–	–	–	–	–	–	–	–	–	–	–	–	–	–	–	–	–	recovery at 2 h, 10 µM (MDR1; MDCK-MDR1, Recovery A->B): 87.6%; recovery at 2 h, 10 µM (MDR1; MDCK-MDR1, Recovery B->A): 150%; Papp A→B at 2 h, 10 µM [1]: 12.5 ×10⁻⁶ cm/s
Cn1cc(-c2cc3c(Cl)ncnn3c2)cn1 [Compound 2, 4-chloro-6-(1-methyl-1H-pyrazol-4-yl)pyrrolo[2,1-f][1,2,4]triazine]	1.38 µM	1.34 ± 0.07 µM	6.09 µM	7.56 ± 0.991 µM	7.34 µM	4.47 µM and 9.3 µM and 8.26 µM	7.713 ± 3.929 µM and 7.713 µM	3.55 µM	2.87 ± 0.51 µM	6.73 ± 2.07 µM	9.19 µM	10 µM	6.48 µM	7.51 µM	3	3	9.3 ± 1.21 µM	7.91 µM and 10 µM (2×)	–	–	EC50 (MDA-MB-175VII; read-out: CTG EC50 MDA-MB-175VII, single determinations, raw data of Supp. Tab. 2, independent experiments, unit from Supp. Tab. 2): 7.57 µM; EC50 (ZR-75-1; raw data of Supp. Tab. 2, independent experiments, unit from Supp. Tab. 2, read-out: CTG EC50 ZR-75-1, single determinations): 7.14 µM and 4.8 µM
Cn1cc(-c2cc3c(N4CCNCC4)ncnn3c2)cn1 [Compound 3]	–	–	–	–	5.59 ± 2.56 µM	2.5 µM and 8.76 µM and 5.5 µM	–	–	–	≥ 10 µM	≥ 10 µM	≥ 10 µM	≥ 10 µM	≥ 10 µM	1	1	1.54 ± 0.852 µM	1.4 µM and 0.766 µM and 2.45 µM	≥10 µM	≥ 10 µM	–
Cn1cc(-c2cc3c(N4CCN(c5ncccn5)CC4)ncnn3c2)cn1 [Compound 4]	≥ 10 µM	≥ 10 µM	≥ 10 µM	≥ 10 µM	0.035 ± 0.013 µM	0.0496 µM and 0.0362 µM and 0.0185 µM	–	≥ 10 µM	≥ 10 µM	5.27 ± 0.509 µM	≥ 10 µM	≥ 10 µM	≥ 10 µM	≥ 10 µM	5	5.3	0.076 ± 0.045 µM	0.0275 µM and 0.0821 µM and 0.118 µM	≥10 µM	5.8 µM	fold increase in potency with respect to PDGFRA-D842V (PDGFRA-D842V; 4 (pyrimidine added) compared with 3): 160 fold
Cn1cc(-c2cc3c(N4CCN(c5ncc(Cc6ccccc6)cn5)CC4)ncnn3c2)cn1 [Compound 5]	6.6 µM	8.26 ± 1.7 µM	≥ 10 µM	≥ 10 µM	–	–	–	≥ 10 µM	≥ 10 µM	1.48 ± 1.2 µM	≥ 10 µM	≥ 10 µM	≥ 10 µM	≥ 10 µM	–	–	–	–	≥10 µM	–	–
Cn1cc(-c2cc3c(N4CC5(CN(c6ncc(Cc7ccccc7)cn6)C5)C4)ncnn3c2)cn1 [Compound 6]	8.79 µM	9.53 ± 0.65 µM	≥ 10 µM	≥ 10 µM	7.35 ± 0.884 µM	6.11 µM and 7.81 µM and 8.13 µM	–	≥ 10 µM	≥ 10 µM	≥ 10 µM	≥ 10 µM	≥ 10 µM	≥ 10 µM	≥ 10 µM	1	1	2.16 ± 0.167 µM	2.28 µM and 2.04 µM	≥10 µM	≥ 10 µM	–
CN(C)[C@@](C)(c1ccc(F)cc1)c1cnc(N2CCN(c3ncnn4cc(-c5cnn(C)c5)cc34)CC2)nc1 [Compound 8]	1.4 µM	1.66 ± 0.25 µM	0.999 µM	1.17 ± 0.264 µM	0.0004 ± 0.0001 µM	0.00028 µM and 0.00038 µM and 0.00056 µM	8.631 ± 2.371 µM and 8.631 µM	2.77 µM	2.56 ± 0.258 µM	0.254 ± 0.074 µM	≥ 10 µM	≥ 10 µM	≥ 10 µM	≥ 10 µM	33	33	0.0023 ± 0.0017 µM	0.0035 µM and 0.0024 µM and 0.0011 µM	5.894 µM and 10 µM	0.35 µM	fold decrease in potency at the biochemical level compared to avapritinib (PDGFRA-D842V; HTRF IC50, PDGFRA-D842V and KIT-D816H): 3–5 fold
CCN[C@@](C)(c1ccc(F)cc1)c1cnc(N2CCN(c3ncnn4cc(-c5cnn(C)c5)cc34)CC2)nc1 [Compound 9]	1.16 µM	1.33 ± 0.22 µM	0.532 µM	0.575 ± 0.159 µM	< 0.0001 µM	< 0.0001 µM	9.041 ± 1.661 µM and 9.041 µM	1.33 µM	1.5 ± 0.223 µM	0.092 ± 0.016 µM	≥ 10 µM	≥ 10 µM	≥ 10 µM	≥ 10 µM	155	155	0.0004 ± 0.0002 µM	0.00026 µM and 0.00054 µM and 0.00027 µM	7.123 µM and 10 µM	0.109 µM	–
